Measured values: patent publication US20120101100A1 (priority 2008, published 2012)

Biological target: S. aureus GyrB ATPase (Staphylococcus aureus, UniProt P0A0K8)
Assay: S. aureus (SAU) GyrB ATPase inhibition, malachite green phosphate detection (E. coli GyrA + S. aureus GyrB)
Assay type: biochemical
Details: compound concentration of 1.0 μM unless otherwise noted; average value where assay was carried out more than once; read-out: S. aureus (SAU) GyrB ATPase % Inhibition
Description: Compounds were tested for inhibition of GyrB ATPase activity using an ammonium molybdate/malachite green-based phosphate detection assay (Lanzetta, P. A., L. J. Alvarez, P. S. Reinach, and O. A. Candia, 1979, 100: 95-97). Assays were performed in multiwell plates in 100 μl reactions containing: 50 mM Hepes buffer pH 7.5, 75 mM ammonium acetate, 8.0 mM magnesium chloride, 1.0 mM ethylenediaminetetraacetic acid, 5% glycerol, 2 mM 1,4-Dithio-DL-threitol, 400 nM bovine serum albumin, 5 μg/ml sheared salmon sperm DNA, 1.25 nM E. coli GyrA, 1.25 nM S. aureus GyrB, 500 μM ATP, and compound in dimethylsulfoxide. Reactions were quenched with 150 μl of ammonium molybdate/malachite green detection reagent containing 1.2 mM malachite green hydrochloride, 8.5 mM ammonium molybdate tetrahydrate, and 1 M hydrochloric acid. Plates were read in an absorbance plate reader at 650 nm and percent inhibition values were calculated using dimethylsulfoxide (2%)-containing reactions as 0% inhibition and novobiocin-containing (2 μM) reactions as 100% inhibition controls. Compound potency was based on IC50 measurements determined from reactions performed in the presence of 10 different compound concentrations.

Chain of S. aureus GyrB ATPase (P0A0K8 whole entry): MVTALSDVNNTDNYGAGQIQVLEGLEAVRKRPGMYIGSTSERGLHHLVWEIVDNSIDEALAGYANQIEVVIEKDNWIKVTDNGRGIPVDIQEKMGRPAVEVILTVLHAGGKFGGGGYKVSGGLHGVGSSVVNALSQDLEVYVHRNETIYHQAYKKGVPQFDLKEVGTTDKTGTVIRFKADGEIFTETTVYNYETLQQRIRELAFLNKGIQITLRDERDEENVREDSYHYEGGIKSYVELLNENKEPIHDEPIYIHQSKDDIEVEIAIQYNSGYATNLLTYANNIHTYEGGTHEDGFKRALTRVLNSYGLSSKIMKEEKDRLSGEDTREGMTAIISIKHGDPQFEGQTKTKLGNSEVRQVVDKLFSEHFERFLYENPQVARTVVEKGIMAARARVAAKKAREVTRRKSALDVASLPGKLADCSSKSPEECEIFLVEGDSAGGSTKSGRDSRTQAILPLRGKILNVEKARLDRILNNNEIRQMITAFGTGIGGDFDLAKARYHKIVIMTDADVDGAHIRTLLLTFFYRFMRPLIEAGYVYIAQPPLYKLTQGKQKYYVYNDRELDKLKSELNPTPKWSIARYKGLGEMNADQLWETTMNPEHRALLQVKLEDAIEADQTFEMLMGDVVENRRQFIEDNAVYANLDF
Chain of S. aureus GyrB ATPase (P0AES4 whole entry, further chain): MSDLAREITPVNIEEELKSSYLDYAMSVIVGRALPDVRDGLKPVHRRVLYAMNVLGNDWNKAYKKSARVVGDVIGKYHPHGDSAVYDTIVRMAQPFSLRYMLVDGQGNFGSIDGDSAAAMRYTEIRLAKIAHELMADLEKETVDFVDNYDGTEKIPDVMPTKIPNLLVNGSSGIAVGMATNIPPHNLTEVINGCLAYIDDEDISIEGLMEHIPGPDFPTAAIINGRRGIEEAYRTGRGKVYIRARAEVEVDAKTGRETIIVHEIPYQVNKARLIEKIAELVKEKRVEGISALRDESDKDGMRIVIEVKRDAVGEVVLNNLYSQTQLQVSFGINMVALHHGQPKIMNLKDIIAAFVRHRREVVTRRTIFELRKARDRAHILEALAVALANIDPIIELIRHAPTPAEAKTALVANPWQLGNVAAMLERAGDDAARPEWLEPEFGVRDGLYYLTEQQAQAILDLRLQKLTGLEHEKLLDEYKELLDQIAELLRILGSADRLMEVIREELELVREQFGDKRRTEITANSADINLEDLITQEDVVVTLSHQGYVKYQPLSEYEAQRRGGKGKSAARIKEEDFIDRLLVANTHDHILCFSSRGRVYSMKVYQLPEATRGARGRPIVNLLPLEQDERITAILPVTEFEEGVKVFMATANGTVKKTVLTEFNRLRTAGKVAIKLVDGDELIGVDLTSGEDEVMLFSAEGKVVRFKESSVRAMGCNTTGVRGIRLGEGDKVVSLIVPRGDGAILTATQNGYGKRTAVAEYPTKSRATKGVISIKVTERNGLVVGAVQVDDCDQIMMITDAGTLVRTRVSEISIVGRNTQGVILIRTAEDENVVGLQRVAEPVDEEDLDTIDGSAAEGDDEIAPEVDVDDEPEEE

Molecule `CCNC(=O)Nc1cc(-c2nc(C(F)(F)F)c(C(=O)NCCN3CCN(C)CC3)s2)c(-c2cncc(-c3n[nH]c(=O)o3)c2)cn1` [Example 63] has an inhibition at 1 µM of 96%.
`CCNC(=O)Nc1cc(-c2nc(C(F)(F)F)c(C(=O)NCCN3CCN(C)CC3)s2)c(-c2cncc(-c3nnc(C)o3)c2)cn1` [Example 64, 2-(6-(3-ethylureido)-5′-(5-methyl-1,3,4-oxadiazol-2-yl)-3,3′-bipyridin-4-yl)-N-(2-(4-methylpiperazin-1-yl)ethyl)-4-(trifluoromethyl)thiazole-5-carboxamide] gave an inhibition at 1 µM of 98%.
Work on `CCNC(=O)Nc1cc(-c2nc(C(F)(F)F)c(C(=O)NC3CC3)s2)c(-c2cncc(-c3n[nH]c(=O)o3)c2)cn1` [Example 65] yielded an inhibition at 1 µM of 94%.
In the case of `CCNC(=O)Nc1cc(-c2nc(C(F)(F)F)c(C(=O)NC3CC3)s2)c(-c2cncc(-c3nnc(C)o3)c2)cn1` [Example 66, N-cyclopropyl-2-(6-(3-ethylureido)-5′-(5-methyl-1,3,4-oxadiazol-2-yl)-3,3′-bipyridin-4-yl)-4-(trifluoromethyl)thiazole-5-carboxamide], the inhibition at 1 µM is reported as 93%.
`CCNC(=O)Nc1cc(-c2nc(C(F)(F)F)c(C(=O)NC3CCCC3)s2)c(-c2cncc(-c3n[nH]c(=O)o3)c2)cn1` [Example 67, N-cyclopentyl-2-(6-(3-ethylureido)-5′-(5-oxo-4,5-dihydro-1,3,4-oxadiazol-2-yl)-3,3′-bipyridin-4-yl)-4-(trifluoromethyl)thiazole-5-carboxamide] was tested, and the inhibition at 1 µM was 93%.
`CCNC(=O)Nc1cc(-c2nc(C(F)(F)F)c(C(=O)NC3CCCC3)s2)c(-c2cncc(-c3nnc(C)o3)c2)cn1` [Example 68, N-cyclopentyl-2-(6-(3-ethylureido)-5′-(5-methyl-1,3,4-oxadiazol-2-yl)-3,3′-bipyridin-4-yl)-4-(trifluoromethyl)thiazole-5-carboxamide] was tested, and the inhibition at 1 µM was 96%.
In the case of `CCNC(=O)Nc1cc(-c2nc(C(F)(F)F)c(C(=O)NC3CCCCC3)s2)c(-c2cncc(-c3n[nH]c(=O)o3)c2)cn1` [Example 69, N-cyclohexyl-2-(6-(3-ethylureido)-5′-(5-oxo-4,5-dihydro-1,3,4-oxadiazol-2-yl)-3,3′-bipyridin-4-yl)-4-(trifluoromethyl)thiazole-5-carboxamide], the inhibition at 1 µM is reported as 91%.
With `CCNC(=O)Nc1cc(-c2nc(C(F)(F)F)c(C(=O)NC3CCCCC3)s2)c(-c2cncc(-c3nnc(C)o3)c2)cn1` [Example 70, N-cyclohexyl-2-(6-(3-ethylureido)-5′-(5-methyl-1,3,4-oxadiazol-2-yl)-3,3′-bipyridin-4-yl)-4-(trifluoromethyl)thiazole-5-carboxamide] the inhibition at 1 µM was 96%.
For `CCNC(=O)Nc1cc(-c2nc(C(F)(F)F)cs2)c(-c2cc(-c3n[nH]c(=O)o3)cnc2CC)cn1` [Example 71, 1-ethyl-3-(2′-ethyl-5′-(5-hydroxy-1,3,4-oxadiazol-2-yl)-4-(4-(trifluoromethyl)thiazol-2-yl)-3,3′-bipyridin-6-yl)urea], the inhibition at 1 µM was 93%.
Work on `CCNC(=O)Nc1cc(-c2nc(-c3ccccc3)cs2)c(-c2cc(-c3n[nH]c(=O)o3)cnc2CC)cn1` [Example 72, 1-ethyl-3-(2′-ethyl-5′-(5-hydroxy-1,3,4-oxadiazol-2-yl)-4-(4-phenylthiazol-2-yl)-3,3′-bipyridin-6-yl)urea] yielded an inhibition at 1 µM of 95%.
With `CCNC(=O)Nc1cc(-c2nc(C(F)(F)F)cs2)c(-c2cc(-c3nnc(C)o3)cnc2CC)cn1` [Example 73, 1-ethyl-3-(2′-ethyl-5′-(5-methyl-1,3,4-oxadiazol-2-yl)-4-(4-(trifluoromethyl)thiazol-2-yl)-3,3′-bipyridin-6-yl)urea] the inhibition at 1 µM was 97%.
In the case of `CCNC(=O)Nc1cc(-c2nc(-c3ccccc3)cs2)c(-c2cc(-c3nnc(C)o3)cnc2CC)cn1` [Example 74], the inhibition at 1 µM is reported as 94%.
Work on `CCNC(=O)Nc1cc(-c2nc(C(F)(F)F)cs2)c(-c2cc(OCC)nc(-c3n[nH]c(=O)o3)c2)cn1` [Example 75, 1-(2′-ethoxy-6′-(5-oxo-4,5-dihydro-1,3,4-oxadiazol-2-yl)-4-(4-(trifluoromethyl)thiazol-2-yl)-3,4′-bipyridin-6-yl)-3-ethylurea] yielded an inhibition at 1 µM of 99%.
`CCNC(=O)Nc1cc(-c2nc(C(F)(F)F)cs2)c(-c2cc(OCC)nc(-c3nnc(C)o3)c2)cn1` [Example 76, 1-(2′-ethoxy-6′-(5-methyl-1,3,4-oxadiazol-2-yl)-4-(4-(trifluoromethyl)thiazol-2-yl)-3,4′-bipyridin-6-yl)-3-ethylurea] showed an inhibition at 1 µM of 100%.
`CCNC(=O)Nc1cc(-c2nc(-c3ccccc3)cs2)c(-c2cc(OCC)nc(-c3n[nH]c(=O)o3)c2)cn1` [Example 77, 1-(2′-ethoxy-6′-(5-oxo-4,5-dihydro-1,3,4-oxadiazol-2-yl)-4-(4-phenylthiazol-2-yl)-3,4′-bipyridin-6-yl)-3-ethylurea] showed an inhibition at 1 µM of 97%.
With `CCNC(=O)Nc1cc(-c2nc(-c3ccccc3)cs2)c(-c2cc(OCC)nc(-c3nnc(C)o3)c2)cn1` [Example 78, 1-(2′-ethoxy-6′-(5-methyl-1,3,4-oxadiazol-2-yl)-4-(4-phenylthiazol-2-yl)-3,4′-bipyridin-6-yl)-3-ethylurea] the inhibition at 1 µM was 99%.
In the case of `CCNC(=O)Nc1cc(-c2nc(C(F)(F)F)cs2)c(-c2cc(OC(C)C)nc(-c3n[nH]c(=O)o3)c2)cn1` [Example 79, 1-ethyl-3-(2′-isopropoxy-6′-(5-oxo-4,5-dihydro-1,3,4-oxadiazol-2-yl)-4-(4-(trifluoromethyl)thiazol-2-yl)-3,4′-bipyridin-6-yl)urea], the inhibition at 1 µM is reported as 95%.
`CCNC(=O)Nc1cc(-c2nc(C(F)(F)F)cs2)c(-c2cc(OC(C)C)nc(-c3nnc(C)o3)c2)cn1` [Example 80, 1-ethyl-3-(2′-isopropoxy-6′-(5-methyl-1,3,4-oxadiazol-2-yl)-4-(4-(trifluoromethyl)thiazol-2-yl)-3,4′-bipyridin-6-yl)urea] gave an inhibition at 1 µM of 96%.
In the case of `CCNC(=O)Nc1cc(-c2nc(-c3ccccc3)cs2)c(-c2cc(OC(C)C)nc(-c3n[nH]c(=O)o3)c2)cn1` [Example 81, 1-ethyl-3-(2′-isopropoxy-6′-(5-oxo-4,5-dihydro-1,3,4-oxadiazol-2-yl)-4-(4-phenylthiazol-2-yl)-3,4′-bipyridin-6-yl)urea], the inhibition at 1 µM is reported as 94%.
`CCNC(=O)Nc1cc(-c2nc(-c3ccccc3)cs2)c(-c2cc(OC(C)C)nc(-c3nnc(C)o3)c2)cn1` [Example 82, 1-ethyl-3-(2′-isopropoxy-6′-(5-methyl-1,3,4-oxadiazol-2-yl)-4-(4-phenylthiazol-2-yl)-3,4′-bipyridin-6-yl)urea] was tested, and the inhibition at 1 µM was 86%.
`CCNC(=O)Nc1cc(-c2nc(C(F)(F)F)cs2)c(-c2cc(OCC3CC3)nc(-c3n[nH]c(=O)o3)c2)cn1` [Example 83, 1-(2′-(cyclopropylmethoxy)-6′-(5-oxo-4,5-dihydro-1,3,4-oxadiazol-2-yl)-4-(4-(trifluoromethyl)thiazol-2-yl)-3,4′-bipyridin-6-yl)-3-ethylurea] showed an inhibition at 1 µM of 94%.
For `CCNC(=O)Nc1cc(-c2nc(-c3ccccc3)cs2)c(-c2cc(OCC3CC3)nc(-c3n[nH]c(=O)o3)c2)cn1` [Example 85, 1-(2′-(cyclopropylmethoxy)-6′-(5-oxo-4,5-dihydro-1,3,4-oxadiazol-2-yl)-4-(4-phenylthiazol-2-yl)-3,4′-bipyridin-6-yl)-3-ethylurea], the inhibition at 1 µM was 93%.
`CCNC(=O)Nc1cc(-c2nc(C(F)(F)F)cs2)c(-c2cc(-c3n[nH]c(=O)o3)nc(N3CCOCC3)c2)cn1` [Example 86, 1-ethyl-3-(2′-morpholino-6′-(5-oxo-4,5-dihydro-1,3,4-oxadiazol-2-yl)-4-(4-(trifluoromethyl)thiazol-2-yl)-3,4′-bipyridin-6-yl)urea] was tested, and the inhibition at 1 µM was 97%.
In the case of `CCNC(=O)Nc1cc(-c2nc(C(F)(F)F)cs2)c(-c2cc(-c3nnc(C)o3)nc(N3CCOCC3)c2)cn1` [Example 87, 1-ethyl-3-(2′-morpholino-6′-(5-methyl-1,3,4-oxadiazol-2-yl)-4-(4-(trifluoromethyl)thiazol-2-yl)-3,4′-bipyridin-6-yl)urea], the inhibition at 1 µM is reported as 99%.
With `CCNC(=O)Nc1cc(-c2nc(-c3ccccc3)cs2)c(-c2cc(-c3n[nH]c(=O)o3)nc(N3CCOCC3)c2)cn1` [Example 88] the inhibition at 1 µM was 94%.
Molecule `CCNC(=O)Nc1cc(-c2nc(-c3ccccc3)cs2)c(-c2cc(-c3nnc(C)o3)nc(N3CCOCC3)c2)cn1` [Example 89, 1-ethyl-3-(2′-(5-methyl-1,3,4-oxadiazol-2-yl)-6′-morpholino-4-(4-phenylthiazol-2-yl)-3,4′-bipyridin-6-yl)urea] has an inhibition at 1 µM of 87%.
`CCNC(=O)Nc1cc(-c2nc(C(F)(F)F)cs2)c(-c2cc(OC3CCN(C)CC3)nc(-c3n[nH]c(=O)o3)c2)cn1` [Example 90, 1-ethyl-3-(2′-(1-methylpiperidin-4-yloxy)-6′-(5-oxo-4,5-dihydro-1,3,4-oxadiazol-2-yl)-4-(4-(trifluoromethyl)thiazol-2-yl)-3,4′-bipyridin-6-yl)urea] was tested, and the inhibition at 1 µM was 116%.
With `CCNC(=O)Nc1cc(-c2nc(C(F)(F)F)cs2)c(-c2cc(OCCN(C)C)nc(-c3n[nH]c(=O)o3)c2)cn1` [Example 92, 1-(2′-(2-(dimethylamino)ethoxy)-6′-(5-oxo-4,5-dihydro-1,3,4-oxadiazol-2-yl)-4-(4-(trifluoromethyl)thiazol-2-yl)-3,4′-bipyridin-6-yl)-3-ethylurea] the inhibition at 1 µM was 104%.
Molecule `CCNC(=O)Nc1cc(-c2nc(-c3ccccc3)cs2)c(-c2cncc(-c3nnc(C)o3)c2)cn1` [Example 94, 1-ethyl-3-(5′-(5-methyl-1,3,4-oxadiazol-2-yl)-4-(4-phenylthiazol-2-yl)-3,3′-bipyridin-6-yl)urea] has an inhibition at 1 µM of 98%.
